Measured values: ChEMBL document CHEMBL5465560, “Selectivity Literature for EUbOPEN Chemogenomic Library” (2024)

Experiments:
[1] = molecular target: Mitogen-activated protein kinase kinase kinase 1 (Homo sapiens, UniProt Q13233); test: Selectivity interaction (KinomeScan (DiscoverX)) EUB0000607a MAP3K1; details: at 10 µM
[2] = molecular target: T1, Mitogen-activated protein kinase kinase kinase kinase 2 (Homo sapiens) (UniProt Q12851); test: Selectivity interaction (KinomeScan (DiscoverX)) EUB0001049a MAP4K2; details: at 1 µM
T1 sequence (whole entry): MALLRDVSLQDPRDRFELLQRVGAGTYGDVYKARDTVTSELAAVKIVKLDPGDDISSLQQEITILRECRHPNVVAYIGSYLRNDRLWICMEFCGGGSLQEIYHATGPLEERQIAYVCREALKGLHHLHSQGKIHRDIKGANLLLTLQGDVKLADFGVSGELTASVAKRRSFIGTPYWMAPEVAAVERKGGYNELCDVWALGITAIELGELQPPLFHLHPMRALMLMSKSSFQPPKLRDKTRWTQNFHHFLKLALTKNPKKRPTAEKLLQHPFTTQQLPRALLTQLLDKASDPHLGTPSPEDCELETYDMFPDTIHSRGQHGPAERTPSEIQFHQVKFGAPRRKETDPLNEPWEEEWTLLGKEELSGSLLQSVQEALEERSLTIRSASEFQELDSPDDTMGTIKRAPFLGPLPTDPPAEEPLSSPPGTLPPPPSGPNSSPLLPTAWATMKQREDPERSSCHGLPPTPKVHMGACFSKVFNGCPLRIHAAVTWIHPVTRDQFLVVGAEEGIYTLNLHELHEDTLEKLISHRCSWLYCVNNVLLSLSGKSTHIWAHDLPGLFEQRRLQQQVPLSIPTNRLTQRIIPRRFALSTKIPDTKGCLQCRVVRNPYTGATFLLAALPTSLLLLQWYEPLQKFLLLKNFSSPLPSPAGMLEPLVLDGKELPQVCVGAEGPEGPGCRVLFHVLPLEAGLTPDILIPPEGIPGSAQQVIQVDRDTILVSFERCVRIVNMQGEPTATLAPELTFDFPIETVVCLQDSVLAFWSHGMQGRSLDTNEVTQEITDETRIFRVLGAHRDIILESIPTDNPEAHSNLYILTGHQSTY

[3] = molecular target: T2, Mitogen-activated protein kinase kinase kinase 15 (Homo sapiens) (UniProt Q6ZN16); test: Selectivity interaction (KinomeScan (DiscoverX)) EUB0000092b MAP3K15; details: at 10 µM
T2 sequence (whole entry): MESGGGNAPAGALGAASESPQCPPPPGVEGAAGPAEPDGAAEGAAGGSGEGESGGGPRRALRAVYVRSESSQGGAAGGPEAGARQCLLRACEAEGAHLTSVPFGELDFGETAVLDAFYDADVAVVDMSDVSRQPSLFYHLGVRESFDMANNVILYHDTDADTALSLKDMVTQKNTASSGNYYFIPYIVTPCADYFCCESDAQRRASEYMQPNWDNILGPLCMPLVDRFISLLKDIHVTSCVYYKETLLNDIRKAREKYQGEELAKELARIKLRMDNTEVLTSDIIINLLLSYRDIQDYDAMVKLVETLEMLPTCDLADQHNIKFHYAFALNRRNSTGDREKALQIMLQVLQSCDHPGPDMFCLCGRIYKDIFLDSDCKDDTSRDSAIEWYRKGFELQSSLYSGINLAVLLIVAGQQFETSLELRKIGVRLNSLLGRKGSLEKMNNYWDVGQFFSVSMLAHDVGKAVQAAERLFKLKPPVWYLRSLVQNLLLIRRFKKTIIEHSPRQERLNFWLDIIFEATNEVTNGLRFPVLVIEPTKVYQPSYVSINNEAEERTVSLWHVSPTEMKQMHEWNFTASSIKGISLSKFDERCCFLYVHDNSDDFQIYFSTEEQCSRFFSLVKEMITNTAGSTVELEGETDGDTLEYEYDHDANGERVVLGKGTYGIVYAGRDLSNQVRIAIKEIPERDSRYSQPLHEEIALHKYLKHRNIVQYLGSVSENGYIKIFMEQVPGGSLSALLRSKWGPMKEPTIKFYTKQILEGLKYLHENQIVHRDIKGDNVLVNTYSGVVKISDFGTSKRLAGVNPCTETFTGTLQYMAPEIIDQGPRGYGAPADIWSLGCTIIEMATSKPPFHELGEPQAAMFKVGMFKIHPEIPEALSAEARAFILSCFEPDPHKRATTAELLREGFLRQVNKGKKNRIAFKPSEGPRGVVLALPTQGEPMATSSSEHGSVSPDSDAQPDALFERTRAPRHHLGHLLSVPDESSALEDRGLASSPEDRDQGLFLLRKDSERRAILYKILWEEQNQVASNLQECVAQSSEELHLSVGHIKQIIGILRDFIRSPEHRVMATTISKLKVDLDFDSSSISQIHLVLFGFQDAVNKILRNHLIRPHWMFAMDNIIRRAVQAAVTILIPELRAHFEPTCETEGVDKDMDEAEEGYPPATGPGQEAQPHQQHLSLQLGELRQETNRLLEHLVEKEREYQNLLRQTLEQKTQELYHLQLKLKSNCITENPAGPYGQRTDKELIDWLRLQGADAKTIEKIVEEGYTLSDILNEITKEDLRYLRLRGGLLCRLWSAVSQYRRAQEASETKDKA

Chain of Mitogen-activated protein kinase kinase kinase 1 (Q13233 whole entry): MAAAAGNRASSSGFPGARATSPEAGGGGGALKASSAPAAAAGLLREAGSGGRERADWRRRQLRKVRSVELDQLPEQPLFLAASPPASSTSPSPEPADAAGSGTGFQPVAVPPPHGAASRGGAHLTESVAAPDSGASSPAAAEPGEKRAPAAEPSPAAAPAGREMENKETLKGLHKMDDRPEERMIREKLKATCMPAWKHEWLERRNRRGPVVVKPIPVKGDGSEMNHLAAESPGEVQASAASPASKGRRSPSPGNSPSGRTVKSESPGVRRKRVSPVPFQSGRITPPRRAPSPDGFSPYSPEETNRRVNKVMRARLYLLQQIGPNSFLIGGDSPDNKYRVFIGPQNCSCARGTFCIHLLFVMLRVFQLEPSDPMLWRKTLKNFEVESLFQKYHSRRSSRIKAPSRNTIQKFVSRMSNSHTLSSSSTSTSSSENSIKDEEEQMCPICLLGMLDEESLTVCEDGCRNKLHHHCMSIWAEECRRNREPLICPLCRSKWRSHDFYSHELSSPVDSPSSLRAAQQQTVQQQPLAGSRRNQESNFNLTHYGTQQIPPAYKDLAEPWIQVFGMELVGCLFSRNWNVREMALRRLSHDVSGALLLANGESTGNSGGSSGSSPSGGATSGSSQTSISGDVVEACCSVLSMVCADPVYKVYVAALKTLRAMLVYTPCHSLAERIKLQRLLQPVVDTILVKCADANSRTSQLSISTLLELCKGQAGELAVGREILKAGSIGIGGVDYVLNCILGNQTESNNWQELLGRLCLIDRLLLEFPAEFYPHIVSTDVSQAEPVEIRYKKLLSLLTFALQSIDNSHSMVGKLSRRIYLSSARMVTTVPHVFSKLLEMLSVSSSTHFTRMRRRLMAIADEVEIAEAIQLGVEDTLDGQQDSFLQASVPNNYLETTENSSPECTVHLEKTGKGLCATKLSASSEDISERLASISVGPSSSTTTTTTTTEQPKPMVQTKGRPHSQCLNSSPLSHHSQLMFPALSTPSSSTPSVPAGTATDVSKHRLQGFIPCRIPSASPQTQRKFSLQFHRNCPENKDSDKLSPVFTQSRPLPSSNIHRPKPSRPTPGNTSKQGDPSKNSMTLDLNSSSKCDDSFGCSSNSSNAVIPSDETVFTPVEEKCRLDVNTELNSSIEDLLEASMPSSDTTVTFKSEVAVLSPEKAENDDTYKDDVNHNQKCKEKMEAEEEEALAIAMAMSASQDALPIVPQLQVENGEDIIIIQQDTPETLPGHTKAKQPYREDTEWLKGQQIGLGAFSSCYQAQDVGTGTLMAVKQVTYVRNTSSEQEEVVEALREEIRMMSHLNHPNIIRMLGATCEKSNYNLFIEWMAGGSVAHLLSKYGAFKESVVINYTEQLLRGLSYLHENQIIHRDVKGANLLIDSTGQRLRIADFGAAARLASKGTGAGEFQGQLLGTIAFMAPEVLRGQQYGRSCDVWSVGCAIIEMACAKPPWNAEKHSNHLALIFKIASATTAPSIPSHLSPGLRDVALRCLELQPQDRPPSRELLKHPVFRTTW

CNC(=O)Nc1ccc(-c2nc(N3CC4CCC(C3)O4)c3cnn(C4CCC5(CC4)OCCO5)c3n2)cc1
% of control [1]: 58%

COc1cc(Nc2nc(C)cc(-c3cnn4nc(OC)ccc34)n2)cc(C(F)(F)F)c1
% of control [2]: 99%

CCC(=O)N1CCN(c2ccc(-n3c(=O)ccc4cnc5ccc(-c6cnc7ccccc7c6)cc5c43)cc2C(F)(F)F)CC1
% of control [3]: 100%
